{"source": "the kinase profiling compilation of Christmann-Franck et al. (2016)", "test_in_all_cases": "radiometric filter-binding kinase assay, Kinase HotSpot", "conditions_in_all_cases": "compound 0.5 µM; ATP 10 µM", "key": {"[1]": {"target": "ADRBK1 (human) (UniProt P25098)"}, "[2]": {"target": "AKT2 (human) (UniProt P31751)"}, "[3]": {"target": "AURKC (human) (UniProt Q9UQB9)", "sequence (Q9UQB9 whole entry, looked up)": "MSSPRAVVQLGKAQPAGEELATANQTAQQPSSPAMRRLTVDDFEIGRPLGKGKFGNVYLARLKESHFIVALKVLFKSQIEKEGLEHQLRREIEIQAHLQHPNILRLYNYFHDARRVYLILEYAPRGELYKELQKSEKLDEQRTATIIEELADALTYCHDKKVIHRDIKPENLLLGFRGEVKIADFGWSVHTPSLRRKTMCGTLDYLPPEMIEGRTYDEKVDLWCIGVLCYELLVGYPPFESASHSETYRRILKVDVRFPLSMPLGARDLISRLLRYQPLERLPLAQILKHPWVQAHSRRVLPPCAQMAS"}, "[4]": {"target": "BTK (human) (UniProt Q06187)"}, "[5]": {"target": "CAMK2G (human) (UniProt Q13555)", "sequence (Q13555 whole entry, looked up)": "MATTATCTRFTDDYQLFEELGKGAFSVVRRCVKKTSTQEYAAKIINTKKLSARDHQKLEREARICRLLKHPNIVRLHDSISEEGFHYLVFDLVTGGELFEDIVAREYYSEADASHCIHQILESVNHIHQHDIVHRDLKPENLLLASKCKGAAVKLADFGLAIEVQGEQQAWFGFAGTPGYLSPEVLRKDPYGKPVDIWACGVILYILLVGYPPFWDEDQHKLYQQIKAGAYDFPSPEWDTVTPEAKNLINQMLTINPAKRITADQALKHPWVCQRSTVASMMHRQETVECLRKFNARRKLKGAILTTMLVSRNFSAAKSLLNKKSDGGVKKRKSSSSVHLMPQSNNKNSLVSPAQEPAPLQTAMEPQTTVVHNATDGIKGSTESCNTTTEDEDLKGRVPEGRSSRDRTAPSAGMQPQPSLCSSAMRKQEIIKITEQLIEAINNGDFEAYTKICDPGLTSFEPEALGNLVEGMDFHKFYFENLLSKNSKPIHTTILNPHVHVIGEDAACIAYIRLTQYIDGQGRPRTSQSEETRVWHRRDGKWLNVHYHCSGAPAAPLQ"}, "[6]": {"target": "CAMKK1 (human) (UniProt Q8N5S9)"}, "[7]": {"target": "CDK2 CCNA2 (human) (UniProt P24941+P20248)"}, "[8]": {"target": "CDK2 CCNE1 (human) (UniProt P24941+P24864)"}, "[9]": {"target": "CDK4 CCND3 (human) (UniProt P30281+P11802)"}, "[10]": {"target": "CDK5 CDK5R1 p35 (human) (UniProt Q00535+Q15078)"}, "[11]": {"target": "CHUK (human) (UniProt O15111)"}, "[12]": {"target": "CSNK1D (human) (UniProt P48730)", "sequence (P48730 whole entry, looked up)": "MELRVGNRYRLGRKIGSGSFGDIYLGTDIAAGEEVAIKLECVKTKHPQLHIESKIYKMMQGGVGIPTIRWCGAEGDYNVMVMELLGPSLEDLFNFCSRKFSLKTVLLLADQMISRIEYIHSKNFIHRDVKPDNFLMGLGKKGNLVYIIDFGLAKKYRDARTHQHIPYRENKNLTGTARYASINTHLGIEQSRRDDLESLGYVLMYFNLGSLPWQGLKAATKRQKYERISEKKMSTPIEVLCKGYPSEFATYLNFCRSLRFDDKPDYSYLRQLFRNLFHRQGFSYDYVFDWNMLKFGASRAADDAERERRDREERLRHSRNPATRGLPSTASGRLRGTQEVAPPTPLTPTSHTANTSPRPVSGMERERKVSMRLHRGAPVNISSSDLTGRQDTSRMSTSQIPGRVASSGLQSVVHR"}, "[13]": {"target": "FLT1 (human) (UniProt P17948)"}, "[14]": {"target": "FYN (human) (UniProt P06241)", "sequence (P06241 whole entry, looked up)": "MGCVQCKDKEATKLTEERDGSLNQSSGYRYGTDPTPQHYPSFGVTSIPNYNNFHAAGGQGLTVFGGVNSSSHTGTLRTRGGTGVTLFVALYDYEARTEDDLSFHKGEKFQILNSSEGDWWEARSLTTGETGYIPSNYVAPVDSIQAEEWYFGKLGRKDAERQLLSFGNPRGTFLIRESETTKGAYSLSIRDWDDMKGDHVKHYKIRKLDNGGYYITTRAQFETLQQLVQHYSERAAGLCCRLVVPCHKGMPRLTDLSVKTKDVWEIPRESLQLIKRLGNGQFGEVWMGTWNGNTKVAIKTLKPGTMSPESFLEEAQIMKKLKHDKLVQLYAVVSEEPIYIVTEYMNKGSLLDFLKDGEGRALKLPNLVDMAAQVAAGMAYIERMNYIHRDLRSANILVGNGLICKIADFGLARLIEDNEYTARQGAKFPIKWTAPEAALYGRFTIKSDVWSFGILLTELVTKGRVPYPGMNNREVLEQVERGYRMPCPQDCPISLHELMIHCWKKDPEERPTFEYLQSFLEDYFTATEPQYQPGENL"}, "[15]": {"target": "GSG2 (human) (UniProt Q8TF76)"}, "[16]": {"target": "GSK3B (human) (UniProt P49841)"}, "[17]": {"target": "HIPK1 (human) (UniProt Q86Z02)", "sequence (Q86Z02 whole entry, looked up)": "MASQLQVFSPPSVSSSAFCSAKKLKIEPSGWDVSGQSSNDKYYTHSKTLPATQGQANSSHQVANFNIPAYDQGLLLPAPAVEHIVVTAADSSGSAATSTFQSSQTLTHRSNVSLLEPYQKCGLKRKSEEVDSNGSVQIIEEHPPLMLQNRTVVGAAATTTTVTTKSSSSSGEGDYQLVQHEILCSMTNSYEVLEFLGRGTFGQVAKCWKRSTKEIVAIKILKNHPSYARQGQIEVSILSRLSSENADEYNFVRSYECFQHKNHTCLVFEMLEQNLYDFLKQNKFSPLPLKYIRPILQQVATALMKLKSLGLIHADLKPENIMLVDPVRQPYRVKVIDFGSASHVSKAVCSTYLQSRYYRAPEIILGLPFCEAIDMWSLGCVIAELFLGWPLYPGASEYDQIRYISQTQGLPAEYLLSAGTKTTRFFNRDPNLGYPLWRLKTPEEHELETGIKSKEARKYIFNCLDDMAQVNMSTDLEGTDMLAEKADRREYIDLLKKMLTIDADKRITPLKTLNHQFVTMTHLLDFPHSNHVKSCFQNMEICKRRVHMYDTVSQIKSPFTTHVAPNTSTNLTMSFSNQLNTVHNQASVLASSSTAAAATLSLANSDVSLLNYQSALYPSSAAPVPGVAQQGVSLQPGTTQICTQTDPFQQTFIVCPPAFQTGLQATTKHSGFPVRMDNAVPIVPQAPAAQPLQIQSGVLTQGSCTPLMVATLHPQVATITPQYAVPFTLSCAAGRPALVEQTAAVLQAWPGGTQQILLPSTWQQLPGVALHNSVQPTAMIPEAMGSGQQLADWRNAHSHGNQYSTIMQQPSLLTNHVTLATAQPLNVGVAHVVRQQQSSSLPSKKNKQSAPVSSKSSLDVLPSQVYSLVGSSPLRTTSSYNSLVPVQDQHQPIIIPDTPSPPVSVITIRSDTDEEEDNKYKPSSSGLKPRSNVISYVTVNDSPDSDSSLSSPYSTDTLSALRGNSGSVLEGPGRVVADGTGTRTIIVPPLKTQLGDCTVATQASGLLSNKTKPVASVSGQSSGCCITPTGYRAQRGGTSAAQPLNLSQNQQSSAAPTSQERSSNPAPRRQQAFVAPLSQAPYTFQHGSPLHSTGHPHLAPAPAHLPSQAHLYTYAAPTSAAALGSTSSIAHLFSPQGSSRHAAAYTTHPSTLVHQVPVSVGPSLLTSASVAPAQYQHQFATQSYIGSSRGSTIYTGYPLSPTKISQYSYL"}, "[18]": {"target": "HIPK4 (human) (UniProt Q8NE63)"}, "[19]": {"target": "IRAK1 (human) (UniProt P51617)"}, "[20]": {"target": "ITK (human) (UniProt Q08881)", "sequence (Q08881 whole entry, looked up)": "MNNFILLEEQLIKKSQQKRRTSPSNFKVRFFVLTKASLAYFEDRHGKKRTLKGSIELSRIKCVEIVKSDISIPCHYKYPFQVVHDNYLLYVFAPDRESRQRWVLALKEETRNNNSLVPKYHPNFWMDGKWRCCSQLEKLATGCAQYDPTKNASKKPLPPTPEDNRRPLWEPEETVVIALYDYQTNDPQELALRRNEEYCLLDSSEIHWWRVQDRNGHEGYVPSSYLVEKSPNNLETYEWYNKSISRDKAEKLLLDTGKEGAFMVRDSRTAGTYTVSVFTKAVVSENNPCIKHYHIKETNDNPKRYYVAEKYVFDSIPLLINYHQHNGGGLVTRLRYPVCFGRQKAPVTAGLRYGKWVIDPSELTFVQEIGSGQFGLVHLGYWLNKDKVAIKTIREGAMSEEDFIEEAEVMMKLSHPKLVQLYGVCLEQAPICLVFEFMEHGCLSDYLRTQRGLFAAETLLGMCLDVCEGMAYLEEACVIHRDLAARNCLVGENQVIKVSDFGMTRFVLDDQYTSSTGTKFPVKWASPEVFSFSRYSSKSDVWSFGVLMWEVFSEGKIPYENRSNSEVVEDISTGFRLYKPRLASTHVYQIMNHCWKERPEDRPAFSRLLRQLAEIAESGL"}, "[21]": {"target": "JAK2 JH1 JH2 (human) (UniProt O60674)"}, "[22]": {"target": "MAP3K10 (human) (UniProt Q02779)"}, "[23]": {"target": "MAP3K14 (human) (UniProt Q99558)"}, "[24]": {"target": "MAP3K5 (human) (UniProt Q99683)"}, "[25]": {"target": "MAP4K4 (human) (UniProt O95819)"}, "[26]": {"target": "MAPK13 (human) (UniProt O15264)"}, "[27]": {"target": "MERTK (human) (UniProt Q12866)", "sequence (Q12866 whole entry, looked up)": "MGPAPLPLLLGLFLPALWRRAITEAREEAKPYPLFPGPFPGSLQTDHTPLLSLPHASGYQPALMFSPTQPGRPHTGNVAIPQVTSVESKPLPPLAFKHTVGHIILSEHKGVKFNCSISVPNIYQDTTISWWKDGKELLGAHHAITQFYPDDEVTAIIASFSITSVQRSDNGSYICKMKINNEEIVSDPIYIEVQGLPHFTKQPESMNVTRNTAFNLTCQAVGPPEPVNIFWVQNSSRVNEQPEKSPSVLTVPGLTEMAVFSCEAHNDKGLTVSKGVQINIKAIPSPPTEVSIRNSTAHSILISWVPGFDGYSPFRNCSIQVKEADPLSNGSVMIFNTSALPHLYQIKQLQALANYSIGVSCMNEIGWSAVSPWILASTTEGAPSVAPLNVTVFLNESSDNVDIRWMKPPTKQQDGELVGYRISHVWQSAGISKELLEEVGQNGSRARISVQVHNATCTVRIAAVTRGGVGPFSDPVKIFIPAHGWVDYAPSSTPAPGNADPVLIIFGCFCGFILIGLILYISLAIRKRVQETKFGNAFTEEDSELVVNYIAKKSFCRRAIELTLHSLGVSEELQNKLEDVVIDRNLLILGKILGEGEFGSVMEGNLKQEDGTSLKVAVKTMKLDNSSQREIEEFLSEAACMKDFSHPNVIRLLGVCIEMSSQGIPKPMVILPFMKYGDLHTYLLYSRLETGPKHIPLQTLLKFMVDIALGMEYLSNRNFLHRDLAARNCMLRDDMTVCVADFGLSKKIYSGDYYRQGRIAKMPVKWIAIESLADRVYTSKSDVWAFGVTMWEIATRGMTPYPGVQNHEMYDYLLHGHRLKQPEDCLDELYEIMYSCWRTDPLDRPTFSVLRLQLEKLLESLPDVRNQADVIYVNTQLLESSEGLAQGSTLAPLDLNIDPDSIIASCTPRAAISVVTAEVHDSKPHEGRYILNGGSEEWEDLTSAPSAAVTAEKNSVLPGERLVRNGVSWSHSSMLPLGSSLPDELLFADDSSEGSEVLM"}, "[28]": {"target": "NEK2 (human) (UniProt P51955)"}, "[29]": {"target": "NTRK1 (human) (UniProt P04629)"}, "[30]": {"target": "NUAK2 (human) (UniProt Q9H093)"}, "[31]": {"target": "PBK (human) (UniProt Q96KB5)"}, "[32]": {"target": "PKN1 (human) (UniProt Q16512)"}, "[33]": {"target": "PLK2 (human) (UniProt Q9NYY3)"}, "[34]": {"target": "RAF1 (human) (UniProt P04049)"}, "[35]": {"target": "SRPK2 (human) (UniProt P78362)"}, "[36]": {"target": "SRPK3 (human) (UniProt Q9UPE1)"}, "[37]": {"target": "STK4 (human) (UniProt Q13043)"}, "[38]": {"target": "SYK (human) (UniProt P43405)"}, "[39]": {"target": "TSSK1B (human) (UniProt Q9BXA7)", "sequence (Q9BXA7 whole entry, looked up)": "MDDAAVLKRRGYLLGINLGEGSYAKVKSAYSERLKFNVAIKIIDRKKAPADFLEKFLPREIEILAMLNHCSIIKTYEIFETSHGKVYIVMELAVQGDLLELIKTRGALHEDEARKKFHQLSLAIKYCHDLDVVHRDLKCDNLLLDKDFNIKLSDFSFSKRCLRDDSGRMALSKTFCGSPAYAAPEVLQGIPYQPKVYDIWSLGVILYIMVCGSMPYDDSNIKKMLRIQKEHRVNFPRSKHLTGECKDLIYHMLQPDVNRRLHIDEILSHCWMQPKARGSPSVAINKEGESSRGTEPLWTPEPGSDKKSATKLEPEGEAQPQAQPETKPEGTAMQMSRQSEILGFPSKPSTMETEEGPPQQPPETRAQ"}, "[40]": {"target": "TSSK2 (human) (UniProt Q96PF2)"}, "[41]": {"target": "TYK2 JH1 catalytic (human) (UniProt P29597)"}, "[42]": {"target": "ZAP70 (human) (UniProt P43403)"}}}
{"smiles": "CC(=O)O/N=C1\\C(=C2\\C(=O)Nc3cc(Br)ccc32)Nc2ccccc21", "values": [{"measurement": "residual activity", "setting": "[1]", "result": 108, "unit": "%"}, {"measurement": "residual activity", "setting": "[2]", "result": 113, "unit": "%"}, {"measurement": "residual activity", "setting": "[3]", "result": 86, "unit": "%"}, {"measurement": "residual activity", "setting": "[4]", "result": 27.3, "unit": "%"}, {"measurement": "residual activity", "setting": "[5]", "result": 70.6, "unit": "%"}, {"measurement": "residual activity", "setting": "[6]", "result": 72.7, "unit": "%"}, {"measurement": "residual activity", "setting": "[7]", "result": 22.3, "unit": "%"}, {"measurement": "residual activity", "setting": "[8]", "result": 24.7, "unit": "%"}, {"measurement": "residual activity", "setting": "[9]", "result": 86.2, "unit": "%"}, {"measurement": "residual activity", "setting": "[10]", "result": 24.7, "unit": "%"}, {"measurement": "residual activity", "setting": "[11]", "result": 98.3, "unit": "%"}, {"measurement": "residual activity", "setting": "[12]", "result": 92.3, "unit": "%"}, {"measurement": "residual activity", "setting": "[13]", "result": 98.6, "unit": "%"}, {"measurement": "residual activity", "setting": "[14]", "result": 20.9, "unit": "%"}, {"measurement": "residual activity", "setting": "[15]", "result": 85.5, "unit": "%"}, {"measurement": "residual activity", "setting": "[16]", "result": 14.3, "unit": "%"}, {"measurement": "residual activity", "setting": "[17]", "result": 83, "unit": "%"}, {"measurement": "residual activity", "setting": "[18]", "result": 95.5, "unit": "%"}, {"measurement": "residual activity", "setting": "[19]", "result": 67.4, "unit": "%"}, {"measurement": "residual activity", "setting": "[20]", "result": 76.8, "unit": "%"}, {"measurement": "residual activity", "setting": "[21]", "result": 105, "unit": "%"}, {"measurement": "residual activity", "setting": "[22]", "result": 92.3, "unit": "%"}, {"measurement": "residual activity", "setting": "[23]", "result": 75.7, "unit": "%"}, {"measurement": "residual activity", "setting": "[24]", "result": 95.8, "unit": "%"}, {"measurement": "residual activity", "setting": "[25]", "result": 30.2, "unit": "%"}, {"measurement": "residual activity", "setting": "[26]", "result": 91.5, "unit": "%"}, {"measurement": "residual activity", "setting": "[27]", "result": 77, "unit": "%"}, {"measurement": "residual activity", "setting": "[28]", "result": 73.9, "unit": "%"}, {"measurement": "residual activity", "setting": "[29]", "result": 54.7, "unit": "%"}, {"measurement": "residual activity", "setting": "[30]", "result": 85.2, "unit": "%"}, {"measurement": "residual activity", "setting": "[31]", "result": 76.8, "unit": "%"}, {"measurement": "residual activity", "setting": "[32]", "result": 96.1, "unit": "%"}, {"measurement": "residual activity", "setting": "[33]", "result": 100, "unit": "%"}, {"measurement": "residual activity", "setting": "[34]", "result": 100, "unit": "%"}, {"measurement": "residual activity", "setting": "[35]", "result": 96.6, "unit": "%"}, {"measurement": "residual activity", "setting": "[36]", "result": 93.9, "unit": "%"}, {"measurement": "residual activity", "setting": "[37]", "result": 54.2, "unit": "%"}, {"measurement": "residual activity", "setting": "[38]", "result": 88.3, "unit": "%"}, {"measurement": "residual activity", "setting": "[39]", "result": 92.4, "unit": "%"}, {"measurement": "residual activity", "setting": "[40]", "result": 101, "unit": "%"}, {"measurement": "residual activity", "setting": "[41]", "result": 81.6, "unit": "%"}, {"measurement": "residual activity", "setting": "[42]", "result": 102, "unit": "%"}]}
